The target of one data set is T1, CHU (Cytophaga hutchinsonii, UniProt A0A6N4SMB5).
T1 sequence (A0A6N4SMB5 1-305): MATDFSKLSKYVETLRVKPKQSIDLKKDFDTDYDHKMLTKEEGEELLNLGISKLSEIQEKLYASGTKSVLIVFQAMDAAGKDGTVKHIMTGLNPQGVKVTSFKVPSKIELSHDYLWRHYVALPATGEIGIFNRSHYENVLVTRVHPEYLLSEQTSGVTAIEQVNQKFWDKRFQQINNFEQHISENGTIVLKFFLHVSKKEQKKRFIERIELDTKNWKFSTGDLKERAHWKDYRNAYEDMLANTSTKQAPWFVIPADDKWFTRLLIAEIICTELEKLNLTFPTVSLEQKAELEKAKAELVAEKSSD
The experiment in a line: HPLC product distribution, end point […] min. The conditions noted are these: 4 mM nucleotide, PolyP-60 65 mM phosphate units, 10 mM Mn2+, 50 mM MOPS-NaOH pH 7.0, 37 °C. The data set is classed as biochemical.

A further data set addresses T2, ARE (Algibacter luteus, UniProt A0A1M6FUJ9).
T2 sequence (A0A1M6FUJ9 1-283): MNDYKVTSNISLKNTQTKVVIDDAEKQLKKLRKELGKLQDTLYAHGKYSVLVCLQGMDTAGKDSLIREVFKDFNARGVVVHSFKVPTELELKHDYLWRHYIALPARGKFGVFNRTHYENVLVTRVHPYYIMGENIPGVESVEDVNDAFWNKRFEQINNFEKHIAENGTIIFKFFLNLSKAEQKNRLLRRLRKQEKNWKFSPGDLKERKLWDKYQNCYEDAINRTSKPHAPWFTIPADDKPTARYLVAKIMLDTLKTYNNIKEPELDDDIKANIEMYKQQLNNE
The experiment in a line: HPLC product distribution, end point […] min. The data set is classed as biochemical. The note with it: 4 mM nucleotide, PolyP 65 mM phosphate units, 10 mM Mn2+, 50 mM MOPS-NaOH pH 7.0, 37 °C.

In data set [1] the target is MBP-tagged Class III PPK2 enzyme from Pedobacter sp. (PED), full-length (Pedobacter sp.). The experiment in a line: AUC.
The data set “AUC” deals with the molecule itself. The data set is described as follows: AUC.

With `Nc1ncnc2c1ncn2[C@@H]1O[C@H](COP(=O)(O)O)[C@@H](O)[C@H]1O` [AMP], the product distribution entry at CHU was “Product distribution of MAN and CHU under the same conditions”.

For the molecule `Nc1nc2c(ncn2[C@@H]2O[C@H](COP(=O)(O)O)[C@@H](O)[C@H]2O)c(=O)[nH]1` [GMP], the product distribution result on CHU is “CHU produces significant amounts of GPn (guanine nucleotides with four or more phosphate groups)”. Further, the “Percent conversion to NTP” value at ARE is “PED and ARE exhibit weak activity against CMP, GDP, and GMP”.

Turning to “MBP-tagged Class III PPK2 enzyme from Pedobacter sp. (PED), full-length”, the stoichiometry N in data set [1] was 2.

B1: MBP-tagged Class III PPK2 enzyme from Cytophaga hutchinsonii (CHU), full-length (enzyme, UniProt A0A6N4SMB5 1-305, looked up)
chain: MATDFSKLSKYVETLRVKPKQSIDLKKDFDTDYDHKMLTKEEGEELLNLGISKLSEIQEKLYASGTKSVLIVFQAMDAAGKDGTVKHIMTGLNPQGVKVTSFKVPSKIELSHDYLWRHYVALPATGEIGIFNRSHYENVLVTRVHPEYLLSEQTSGVTAIEQVNQKFWDKRFQQINNFEQHISENGTIVLKFFLHVSKKEQKKRFIERIELDTKNWKFSTGDLKERAHWKDYRNAYEDMLANTSTKQAPWFVIPADDKWFTRLLIAEIICTELEKLNLTFPTVSLEQKAELEKAKAELVAEKSSD
B1: in “AUC”, the “stoichiometry N” value was 2.

The stoichiometry N is the number of molecules, sites or subunits per partner or assembly.
